From patent publication US20250386827A1, “PESTICIDES WITH METAL NANOPARTICLE AND CELLULOSIC NANOMATERIAL COMPLEX” (NDSU Research Foundation, priority 2024, published 2025) come the findings set out here.

Data set [1] has as its system wheat leaf surface. The data set is described as follows: Contact angle and solid-liquid adhesion energy on wheat leaf surface. To be noted: 100 mg/mL. In kind it is physicochemical. As for the experimental part:
(§1) Surface Adhesion Properties. The contact angle (θc) of the complexation solution on the wheat leaf surface and the surface tension at the liquid-vapor interface (γLV) were measured using a KRUSS (Model: DSA1005, Serial: 30009734, Germany) drop-shape analyzer. The wheat leaf was taped on the sample stage to prepare a flat and level surface for the measurement. […] KRUSS software tracked the surface of the droplet with respect to the leaf surface baseline and calculated the contact angle (θC). Surface tension γLv of the droplet (largest droplet formation at syringe nozzle just before dripping from the nozzle) was measured using a KRUSS drop shape analyzer (pendant needle was used, diameter 1.8 mm). The solid-liquid adhesion energy per unit area (δWSLV) of the droplet was calculated using the following Young-Dupré equation (1): [formula]

Data set [2] can be described thus: Surface tension of droplet (pendant drop, drop-shape analyzer). Type of data set: physicochemical. To be noted: 100 mg/mL in water. As for the experimental part: as §1, with “[formula]” left out

`O.O.O.O.O.O=S(=O)([O-])[O-].[Cu+2]` [CuSO4, copper (II) sulfate pentahydrate]: the contact angle in data set [1] was 125.2 °. For the same compound, the surface adhesion energy in data set [1] (Young-Dupré equation) is 24.17 mM/m. Also, in data set [2], the surface tension turned out to be 57.46 mM/m.
